The values below come from US20080064667A1, “OXAZOLE DERIVATIVES OF TETRACYCLINES” (Wyeth, priority 2003, published 2008).

What all share (assay): MIC, broth microdilution (NCCLS)
What all share (assay type): cell-based
Background: In broth dilution the organism is exposed to a series of concentrations in liquid medium.

In test [1] the test system is E. coli GC1073 (tet(B)). The settings on record: Escherichia coli. In short, it runs like this:
(§1)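 Serial antibiotic dilutions in Mueller-Hinton II broth were inoculated to 10^5 CFU/ml. Plates were incubated 18-22 hours at 35° C. in ambient air.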

The test system of test [2] is S. aureus GC6466 (tet(M)). Particulars: Staphylococcus aureus, Mueller-Hinton II broth, 18-22 hours at 35° C. Put shortly:
as §1

The subject of test [3] is S. pneumoniae* GC1894 (Clinical). The settings on record: Streptococcus pneumoniae, Mueller-Hinton II broth, 18-22 hours at 35° C. Put shortly:
as §1

The test system of test [4] is E. faecalis GC2242 (Van-resistant). Particulars: Enterococcus faecalis, Mueller-Hinton II broth, 18-22 hours at 35° C. Put shortly: as §1
Test [5] relates to E. faecalis GC2267 (tet(L) + (M) + (S)). The settings on record: Enterococcus faecalis. Put shortly: as §1
Test [6] relates to E. coli GC4560 (IMP mutant). Particulars: Escherichia coli. Put shortly:
as §1

Test [7] has as its system H. influenzae<> GC6896 (ATCC Control). The settings on record: Haemophilus influenzae, Mueller-Hinton II broth, 18-22 hours at 35° C. Put shortly:
as §1

In test [8] the test system is M. catarrhalis* GC6907 (Clinical). Particulars: Moraxella catarrhalis, Mueller-Hinton II broth, 18-22 hours at 35° C. Put shortly:
as §1

The test system of test [9] is E. coli GC2270 (tet(M)). The settings on record: Escherichia coli. Put shortly:
as §1

Test [10] relates to S. pneumoniae* GC4465 (Clinical). The settings on record: Streptococcus pneumoniae, Mueller-Hinton II broth, 18-22 hours at 35° C. Put shortly:
as §1

The test system of test [11] is C. albicans GC3066 ATCC (Control). Particulars: Candida albicans, Mueller-Hinton II broth, 18-22 hours at 35° C.
For test [12], the system named is E. coli GC2203 (ATCC Control). Particulars: Escherichia coli, Mueller-Hinton II broth, 18-22 hours at 35° C. Put shortly:
as §1

Test [13] relates to S. aureus GC4536 (Smith MP -In Vivo). Particulars: Staphylococcus aureus, Mueller-Hinton II broth, 18-22 hours at 35° C. In short, it runs like this: as §1
The test system of test [14] is S. aureus GC2216 (ATCC Control). The settings on record: Staphylococcus aureus, Mueller-Hinton II broth, 18-22 hours at 35° C. Put shortly:
as §1

Test [15] relates to S. aureus GC1079 (tet(K)). Particulars: Staphylococcus aureus, Mueller-Hinton II broth, 18-22 hours at 35° C. In short, it runs like this: as §1
In test [16] the test system is E. faecalis GC4555 (ATCC Control). Particulars: Enterococcus faecalis, Mueller-Hinton II broth, 18-22 hours at 35° C. In short, it runs like this: as §1
In test [17] the test system is E. coli GC4559 (parent GC4560). Particulars: Escherichia coli, Mueller-Hinton II broth, 18-22 hours at 35° C. In short, it runs like this: as §1
Test [18] relates to S. aureus GC1131 (Clinical). The settings on record: Staphylococcus aureus, Mueller-Hinton II broth, 18-22 hours at 35° C. Put shortly: as §1
Test [19] concerns S. pyogenes* GC4563 (Clinical). The settings on record: Streptococcus pyogenes, Mueller-Hinton II broth, 18-22 hours at 35° C. Put shortly: as §1

The structures appear in SMILES notation. Converted amounts (≈) assume the structure as drawn. Bounds are passed on as bounds.

Regarding `CN(C)c1cc2nc(-c3ccsc3)oc2c2c1C[C@H]1C[C@H]3[C@H](N(C)C)C(O)=C(C(N)=O)C(=O)[C@@]3(O)C(O)=C1C2=O` [Example 17, (6aR,7aS,8S,11aS)-5,8-bis(dimethylamino)-9,11a,12-trihydroxy-11,13-dioxo-2-thien-3-yl-6,6a,7,7a,8,11,11a,13-octahydrotetraceno[2,1-d][1,3]oxazole-10-carboxamide], the MIC was over 64 µg/mL in test [1]; 8 µg/mL (≈ 14.2 µM) in test [2]; 32 µg/mL (≈ 56.7 µM) in test [3]; 8 µg/mL (≈ 14.2 µM) in test [4]; 16 µg/mL (≈ 28.3 µM) in test [5]; 4 µg/mL (≈ 7.08 µM) in [6]. Moreover, the MIC in [7] was over 64 µg/mL; in [8], 16 µg/mL (≈ 28.3 µM); in test [9] it was over 64 µg/mL; in test [10] it was 32 µg/mL (≈ 56.7 µM); in test [11] it was over 64 µg/mL; in test [12], over 64 µg/mL. Moreover, the MIC was 8 µg/mL (≈ 14.2 µM) in test [13]; 8 µg/mL (≈ 14.2 µM) in test [14]; 8 µg/mL (≈ 14.2 µM) in test [15]; 8 µg/mL (≈ 14.2 µM) in test [16]; over 64 µg/mL in [17]; 8 µg/mL (≈ 14.2 µM) in [18]. In [19], this compound showed an MIC of 16 µg/mL (≈ 28.3 µM).

For the compound `CC(=O)OCc1ccc(-c2nc3cc(N(C)C)c4c(c3o2)C(=O)C2=C(O)[C@]3(O)C(=O)C(C(N)=O)=C(O)[C@@H](N(C)C)[C@@H]3C[C@@H]2C4)o1` [Example 21, {5-[(6aR,7aS,8S,11aS)-10-(aminocarbonyl)-5,8-bis(dimethylamino)-9,11a,12-trihydroxy-11,13-dioxo-6,6a,7,7a,8,11,11a,13-octahydrotetraceno[2,1-d][1,3]oxazol-2-yl]-2-furyl}methyl acetate], the MIC is over 64 µg/mL in [1]; 32 µg/mL in [2]; over 64 µg/mL in [3]; 32 µg/mL in test [4]; 64 µg/mL in test [5]; over 64 µg/mL in test [6]. For the same compound, the MIC in test [7], in [8], in test [9], in [10], in [11] and in [12] was over 64 µg/mL throughout. Besides, the MIC in [13] is 64 µg/mL; in test [14], 32 µg/mL; in test [15], 32 µg/mL; in test [16], over 64 µg/mL; in [17], over 64 µg/mL; in test [18], 64 µg/mL. This compound gave an MIC in test [19] of over 64 µg/mL.

For the compound `Cc1ccc(-c2nc3cc(N(C)C)c4c(c3o2)C(=O)C2=C(O)[C@]3(O)C(=O)C(C(N)=O)=C(O)[C@@H](N(C)C)[C@@H]3C[C@@H]2C4)cc1` [Example 5, (6aR,7aS,8S,11aS)-5,8-bis(dimethylamino)-9,11a,12-trihydroxy-2-(4-methylphenyl)-11,13-dioxo-6,6a,7,7a,8,11,11a,13-octahydrotetraceno[2,1-d][1,3]oxazole-10-carboxamide], the MIC is over 64 µg/mL in test [1]; 4 µg/mL (≈ 6.99 µM) in [2]; 8 µg/mL (≈ 14 µM) in test [3]; 4 µg/mL (≈ 6.99 µM) in [4]; 4 µg/mL (≈ 6.99 µM) in test [6]; over 64 µg/mL in test [7]. Besides, the MIC in test [8] was 16 µg/mL (≈ 27.9 µM); in test [9] it was over 64 µg/mL; in [10], 16 µg/mL (≈ 27.9 µM); in test [11], over 64 µg/mL; in test [12], over 64 µg/mL; in test [13] it was 4 µg/mL (≈ 6.99 µM). Besides, the MIC was 4 µg/mL (≈ 6.99 µM) in test [14]; 4 µg/mL (≈ 6.99 µM) in [15]; 4 µg/mL (≈ 6.99 µM) in test [16]; over 64 µg/mL in [17]; 4 µg/mL (≈ 6.99 µM) in [18]; 16 µg/mL (≈ 27.9 µM) in test [19].

As for `CN(C)c1cc2nc(C=C(c3ccccc3)c3ccccc3)oc2c2c1C[C@H]1C[C@H]3[C@H](N(C)C)C(O)=C(C(N)=O)C(=O)[C@@]3(O)C(O)=C1C2=O` [Example 1, (6aR,7aS,8S,11aS)-5,8-bis(dimethylamino)-2-(2,2-diphenylvinyl)-9,11a,12-trihydroxy-11,13-dioxo-6,6a,7,7a,8,11,11a,13-octahydrotetraceno[2,1-d][1,3]oxazole-10-carboxamide], the MIC in [1] is over 64 µg/mL; in test [2] it was 32 µg/mL (≈ 48.4 µM); in [3], 8 µg/mL (≈ 12.1 µM); in test [4], 16 µg/mL (≈ 24.2 µM); in [6], 32 µg/mL (≈ 48.4 µM); in test [7], over 64 µg/mL. Moreover, the MIC in [8] was over 64 µg/mL; in test [9] it was over 64 µg/mL; in [10], 16 µg/mL (≈ 24.2 µM); in test [11], over 64 µg/mL; in [12], over 64 µg/mL; in test [13], 16 µg/mL (≈ 24.2 µM). Moreover, the MIC is 16 µg/mL (≈ 24.2 µM) in test [14]; 16 µg/mL (≈ 24.2 µM) in test [15]; 32 µg/mL (≈ 48.4 µM) in [16]; over 64 µg/mL in [17]; 16 µg/mL (≈ 24.2 µM) in test [18]; 8 µg/mL (≈ 12.1 µM) in test [19].

For `CN(C)c1cc2nc(-c3cc4ccccc4n3C)oc2c2c1C[C@H]1C[C@H]3[C@H](N(C)C)C(O)=C(C(N)=O)C(=O)[C@@]3(O)C(O)=C1C2=O` [Example 19, (6aR,7aS,8S,11aS)-5,8-bis(dimethylamino)-9,11a,12-trihydroxy-2-(1-methyl-1H-indol-2-yl)-11,13-dioxo-6,6a,7,7a,8,11,11a,13-octahydrotetraceno[2,1-d][1,3]oxazole-10-carboxamide], the MIC in test [1] was over 64 µg/mL; in test [2], 4 µg/mL (≈ 6.54 µM); in test [3] it was 4 µg/mL (≈ 6.54 µM); in [4] it was 4 µg/mL (≈ 6.54 µM); in test [6], 4 µg/mL (≈ 6.54 µM); in [7] it was over 64 µg/mL. For the same compound, the MIC is 16 µg/mL (≈ 26.2 µM) in test [8]; over 64 µg/mL in test [9]; 4 µg/mL (≈ 6.54 µM) in test [10]; over 64 µg/mL in [11]; over 64 µg/mL in test [12]; 8 µg/mL (≈ 13.1 µM) in test [13]. Further, the MIC in [14] is 4 µg/mL (≈ 6.54 µM); in test [15], 4 µg/mL (≈ 6.54 µM); in [16], 8 µg/mL (≈ 13.1 µM); in test [17] it was over 64 µg/mL; in test [18] it was 4 µg/mL (≈ 6.54 µM); in test [19], 8 µg/mL (≈ 13.1 µM).

Consider `CN(C)c1cc2nc(-c3ccc(O)cc3O)oc2c2c1C[C@H]1C[C@H]3[C@H](N(C)C)C(O)=C(C(N)=O)C(=O)[C@@]3(O)C(O)=C1C2=O` [Example 12, (6aR,7aS,8S,11aS)-2-(2,4-dihydroxyphenyl)-5,8-bis(dimethylamino)-9,11a,12-trihydroxy-11,13-dioxo-6,6a,7,7a,8,11,11a,13-octahydrotetraceno[2,1-d][1,3]oxazole-10-carboxamide], for which the MIC was over 64 µg/mL in [1]; 8 µg/mL (≈ 13.5 µM) in test [2]; 8 µg/mL (≈ 13.5 µM) in [3]; 8 µg/mL (≈ 13.5 µM) in [4]; 4 µg/mL (≈ 6.77 µM) in [6]; 16 µg/mL (≈ 27.1 µM) in test [7]. Also, the MIC was 4 µg/mL (≈ 6.77 µM) in test [8]; over 64 µg/mL in test [9]; 8 µg/mL (≈ 13.5 µM) in test [10]; over 64 µg/mL in [11]; 32 µg/mL (≈ 54.2 µM) in test [12]; 8 µg/mL (≈ 13.5 µM) in [13]. The MIC in test [14] is 4 µg/mL (≈ 6.77 µM); in test [15], 8 µg/mL (≈ 13.5 µM); in [16] it was 8 µg/mL (≈ 13.5 µM); in test [17] it was over 64 µg/mL; in [18], 4 µg/mL (≈ 6.77 µM); in test [19] it was 4 µg/mL (≈ 6.77 µM).

As to `COc1ccc(-c2nc3cc(N(C)C)c4c(c3o2)C(=O)C2=C(O)[C@]3(O)C(=O)C(C(N)=O)=C(O)[C@@H](N(C)C)[C@@H]3C[C@@H]2C4)cc1F` [Example 13, (6aR,7aS,8S,11aS)-5,8-bis(dimethylamino)-2-(3-fluoro-4-methoxyphenyl)-9,11a,12-trihydroxy-11,13-dioxo-6,6a,7,7a,8,11,11a,13-octahydrotetraceno[2,1-d][1,3]oxazole-10-carboxamide], the MIC in test [1] is over 64 µg/mL; in [2], 4 µg/mL (≈ 6.59 µM); in test [3], 16 µg/mL (≈ 26.4 µM); in test [4], 8 µg/mL (≈ 13.2 µM); in test [6] it was 4 µg/mL (≈ 6.59 µM); in [7], over 64 µg/mL. Besides, the MIC in [8] was 16 µg/mL (≈ 26.4 µM); in test [9], over 64 µg/mL; in test [10], 32 µg/mL (≈ 52.8 µM); in test [11] it was over 64 µg/mL; in test [12] it was over 64 µg/mL; in test [13], 8 µg/mL (≈ 13.2 µM). For the same compound, the MIC is 4 µg/mL (≈ 6.59 µM) in [14]; 4 µg/mL (≈ 6.59 µM) in test [15]; 8 µg/mL (≈ 13.2 µM) in test [16]; over 64 µg/mL in [17]; 4 µg/mL (≈ 6.59 µM) in test [18]; 16 µg/mL (≈ 26.4 µM) in test [19].
